Data on 16 compounds can be found in patent publication US12624034B2, “Non-covalent modifiers of AKT1 and uses thereof” (Terremoto Biosciences, Inc., priority 2023, dated 2026).

Like-named read-outs stand apart in the source and are kept apart here.

One assay addresses T1, AKT1 WT (Homo sapiens, UniProt P31749).
T1 construct: expressed in transfected cells; host or cells: HEK293
In words: Live cell AKT1 WT target engagement by NanoBRET competitive probe displacement in HEK293 cells. The assay is classed as binding. As to conditions: 2 h at 37° C., read-out: AKT1 WT IC50. Here is the method: (§1) Determining live cell AKT1 E17K, AKT1 WT, and AKT2 target engagement by NanoBRET competitive probe displacement. […] Briefly, HEK293 cells were transfected with plasmids encoding kinase-NanoLuciferase fusion proteins overnight. Cells were then treated with serial dilutions of compound and an ˜EC50 concentration of fluorescently-tagged ATP-competitive tracer (Promega). After incubation for 2 h at 37° C., luciferase substrate and extracellular luciferase inhibitor were added to all wells, and luminescent intensity at 460 nm and 600 nm were measured on a multimode plate-reader. The ratio of E600/E460 was calculated to give the tracer engagement signal (BRET). IC50 values were calculated by fitting BRET values to a log(inhibitor) vs. response Hill equation.
(BRET reads energy transfer from a luciferase to a nearby fluorophore.)

In a further assay the target is T2, AKT2 (Homo sapiens, UniProt P31751).
T2 construct: expressed in transfected cells; host or cells: HEK293
T2 sequence (P31751 whole entry): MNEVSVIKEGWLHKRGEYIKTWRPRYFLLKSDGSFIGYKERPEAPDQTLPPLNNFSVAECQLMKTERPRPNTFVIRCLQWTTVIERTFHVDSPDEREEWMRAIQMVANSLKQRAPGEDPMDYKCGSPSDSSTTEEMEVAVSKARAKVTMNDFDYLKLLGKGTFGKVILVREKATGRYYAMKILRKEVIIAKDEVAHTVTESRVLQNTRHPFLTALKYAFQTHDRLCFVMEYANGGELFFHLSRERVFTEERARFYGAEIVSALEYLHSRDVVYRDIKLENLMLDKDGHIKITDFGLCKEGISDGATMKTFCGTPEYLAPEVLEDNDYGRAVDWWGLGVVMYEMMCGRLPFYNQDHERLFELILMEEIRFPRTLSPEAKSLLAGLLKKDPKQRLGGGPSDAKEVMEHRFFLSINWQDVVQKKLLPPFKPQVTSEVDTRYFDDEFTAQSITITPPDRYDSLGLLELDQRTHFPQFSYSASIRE
In words: Live cell AKT2 target engagement by NanoBRET competitive probe displacement in HEK293 cells. In kind it is binding. As to conditions: 2 h at 37° C., read-out: AKT2 IC50. Here is the method: as §1

Setting [1] is: NanoBRET competitive probe displacement, live HEK293 cells.
Setting [2] is: NanoBRET live cell target engagement, HEK293 cells.

T1 sequence (P31749 whole entry): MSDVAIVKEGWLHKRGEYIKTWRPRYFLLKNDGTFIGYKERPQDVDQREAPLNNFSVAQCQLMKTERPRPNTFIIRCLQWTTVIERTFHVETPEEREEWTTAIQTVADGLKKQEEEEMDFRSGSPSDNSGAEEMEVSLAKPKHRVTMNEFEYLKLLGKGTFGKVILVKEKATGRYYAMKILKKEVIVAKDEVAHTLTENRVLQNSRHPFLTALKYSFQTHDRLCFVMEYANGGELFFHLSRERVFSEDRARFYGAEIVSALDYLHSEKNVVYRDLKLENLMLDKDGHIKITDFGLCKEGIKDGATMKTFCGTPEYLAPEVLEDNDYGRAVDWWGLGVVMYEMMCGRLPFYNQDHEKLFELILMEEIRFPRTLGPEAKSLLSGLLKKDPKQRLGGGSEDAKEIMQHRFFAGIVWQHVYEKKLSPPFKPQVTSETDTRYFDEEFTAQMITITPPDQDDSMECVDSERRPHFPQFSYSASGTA

What is called IC50 is the concentration that inhibits the measured activity by half. As to `COc1ccn(-c2ccc3nc(-c4cccnc4N)n(-c4ccc5c(c4)CC[C@@H]5NC4CCN(C(=O)C5CC5)CC4F)c3n2)n1` (some centres unmarked) [Compound 513], the IC50 was 13.9 nM on AKT1 WT (setting [1]) and 240 nM at AKT2 (setting [1]).

Regarding `Nc1ncccc1-c1nc2ccc(-n3cccn3)nc2n1-c1ccc2c(c1)CC[C@@H]2NCc1cccnc1` [Compound 141], the half-inhibitory concentration (IC50) on AKT1 WT (setting [2]) came to 52.6 nM; on AKT2 (setting [2]), 734 nM.

Consider `Cc1cc(C(=O)N[C@H]2CCc3cc(-n4c(-c5cccnc5N)nc5ccc(-n6nccn6)nc54)ccc32)cnc1C(F)F` [Compound 102], for which the IC50 on AKT1 WT (setting [2]) amounted to 31.5 nM; on AKT2 (setting [2]) it was 836 nM.

In the case of `Nc1ncccc1-c1nc2ccc(-n3cccn3)nc2n1-c1ccc2c(c1)CC[C@@H]2n1cnnc1Cc1ccccc1` [Compound 169, (S)-3-(3-(1-(3-benzyl-4H-1,2,4-triazol-4-yl)-2,3-dihydro-1H-inden-5-yl)-5-(1H-pyrazol-1-yl)-3H-imidazo[4,5-b]pyridin-2-yl)pyridin-2-amine], the figures for the IC50 on AKT1 WT (setting [2]) and at AKT2 (setting [2]) were 12 nM and 228 nM, respectively.

Regarding `Nc1ncccc1-c1nc2ccc(-n3cccn3)nc2n1-c1ccc2c(c1)CC[C@@H]2NC(=O)c1ccn(C2CC2)n1` [Compound 215], the 50% inhibitory concentration (IC50) on AKT1 WT (setting [2]) turned out to be 21.5 nM; on AKT2 (setting [2]), 381 nM.

Regarding `N#Cc1cc(C(=O)N[C@H]2CCc3cc(-n4c(-c5cccnc5N)nc5ccc(-n6cccn6)nc54)ccc32)ccc1O` [Compound 259], the IC50 was 204 nM on AKT1 WT (setting [2]) and 1210 nM on AKT2 (setting [2]).

For the compound `Nc1ncccc1-c1nc2c(F)cc(-n3cccn3)nc2n1-c1ccc2c(c1)CC[C@@H]2NC(=O)c1ccc(C(F)F)nc1` [Compound 165, (S)—N-(5-(2-(2-aminopyridin-3-yl)-7-fluoro-5-(1H-pyrazol-1-yl)-3H-imidazo[4,5-b]pyridin-3-yl)-2,3-dihydro-1H-inden-1-yl)-6-(difluoromethyl)nicotinamide], the figures for the IC50 on AKT1 WT (setting [2]) and at AKT2 (setting [2]) were 11.6 nM and 100 nM, respectively.

With `Nc1ncccc1-c1nc2ccc(-n3cccn3)nc2n1-c1ccc2c(c1)CC[C@@H]2NC(=O)c1cnc(C(F)F)cc1F` [Compound 97], the IC50 at AKT1 WT (setting [2]) amounted to 21.9 nM; on AKT2 (setting [2]) it was 83.5 nM.

On to `Cc1cc2ncn([C@H]3CCc4cc(-n5c(-c6cccnc6N)nc6ccc(-n7cccn7)nc65)ccc43)c(=O)c2cn1` [Compound 91, (S)-3-(5-(2-(2-aminopyridin-3-yl)-5-(1H-pyrazol-1-yl)-3H-imidazo[4,5-b]pyridin-3-yl)-2,3-dihydro-1H-inden-1-yl)-7-methylpyrido[4,3-d]pyrimidin-4(3H)-one], for which the results for the IC50 at AKT1 WT (setting [2]) and on AKT2 (setting [2]) were 198 nM and 763 nM, respectively.

On to `Cc1ccc(C(=O)N[C@H]2CCc3cc(-n4c(-c5cccnc5N)nc5ccc(-c6ncc(C)s6)nc54)ccc32)cn1` [Compound 314], for which the IC50 came out at 10.5 nM at AKT1 WT (setting [2]) and 70.4 nM on AKT2 (setting [2]).

With `Nc1ncccc1-c1nc2ccc(C#CC3CC3)nc2n1-c1ccc2c(c1)CC(F)[C@@H]2NC1CCN(C(=O)C2CC2)CC1` (some centres unmarked) [Compound 521], the IC50 was 105 nM at AKT1 WT (setting [1]) and over 10000 nM at AKT2 (setting [1]).

As to `Cc1cnsc1C(=O)N[C@H]1CCc2cc(-n3c(-c4cccnc4N)nc4ccc(-n5cccn5)nc43)ccc21` [Compound 451], the IC50 came to 8.14 nM at AKT1 WT (setting [1]) and 198 nM at AKT2 (setting [1]).

Consider `Nc1ncccc1-c1nc2ccc(-n3cccn3)nc2n1-c1ccc2c(c1)CC[C@@H]2NC1CCN(C(=O)C2CC2)CC1F` (some centres unmarked) [Compound 444], for which the 50% inhibitory concentration (IC50) at AKT1 WT (setting [1]) stood at 23.5 nM; at AKT2 (setting [1]), 499 nM.

Turning to `Cc1nnc(-c2ccc3nc(-c4cccnc4N)n(-c4ccc5c(c4)CC[C@@H]5NC4CCN(C(=O)C5CC5)CC4)c3n2)s1` [Compound 516], the IC50 on AKT1 WT (setting [1]) was 102 nM; at AKT2 (setting [1]), 6240 nM.

Turning to `C#Cc1ccc2nc(-c3cccnc3N)n(-c3ccc4c(c3)CC[C@@H]4NC(=O)c3ccc(C(F)F)nc3)c2n1` [Compound 404], the values for the half-inhibitory concentration (IC50) at AKT1 WT (setting [1]) and at AKT2 (setting [1]) were 33.7 nM and 2820 nM, respectively.

Consider `Cn1c(C(=O)N[C@H]2CCc3cc(-n4c(-c5cccnc5N)nc5ccc(-n6nccn6)nc54)ccc32)cnc1C(F)F` [Compound 578], for which the IC50 on AKT1 WT (setting [1]) is 74.9 nM; at AKT2 (setting [1]), 1690 nM.
